Assay results published in patent US20080131432A1, “Method of treating the chemotoxic effects of chemotherapeutic drugs on brain tissue” (University of Kentucky Research Foundation, priority 2005, published 2008).
“Also recorded” adds a separate entry of the source.

Key:
TNF α = TNF α levels in serum (mouse TNF-α ELISA); type: in vivo
Protocol: Mice were treated with 20 mg/kg ADR or saline as control. Blood samples were collected at 1, 3, 6, 9, 24 hours and allowed to clot at 2-8° C. overnight. Serum samples were used to measure TNF α levels, according to the mouse enzyme-linked immunosorbent assay following the manufacturers' instructions (mouse TNF-α/TNFSF1A immunoassay, R&D Systems, Minneapolis, MN). The TNF α concentration in the sample was calculated from a recombinant mouse TNF α standard curve. The minimum detection limit is typically less than 5.1 pg/mL.
8-week-old male B6C3 mice (25-30 g) were kept under standard conditions. Mice were injected with a single intraperitoneal (i.p.) treatment with adriamycin (doxorubicin hydrochloride, 20 mg/kg), TNF-α, anti-mouse TNF-antibody (40 ng/kg), dipropylenetriamine NONOate (DPTA NONOate, […]), lipopolysaccharide (LPS 1 mg/kg), NG-nitro-L-arginine-methyl esther (L-NAME, 10 mg/kg) or pre-immune IgG.
Mice were treated with 20 mg/kg ADR, TNF-α, anti-mouse TNF-antibody, dipropylenetriamine NONOate, lipopolysaccharide, NG-nitro-L-arginine-methyl esther or pre-immune IgG, as well as saline as control. Blood samples were collected at 3 hours after ADR treatment and allowed to clot at 2-8° C. overnight. Serum samples were used to measure TNF levels, according to the mouse enzyme-linked immunosorbent assay following the manufacturers' instructions (mouse TNF-α/TNFSF1A immunoassay, R&D Systems, Minneapolis, Minn.). The TNF concentration in the sample was calculated from a recombinant mouse TNF standard curve. The minimum detection limit is typically less than 5.1 pg/mL.

[1] = test system: mitochondrial respiration complex I; assay: Brain mitochondrial respiration, complex I (pyruvate + malate), respiration control ratio; conditions: iNOSKO mice, 3 hours after treatment
Protocol: Mice were perfused via cardiac puncture with cold mitochondrial isolation buffer, the brain promptly removed, the cerebellum dissected away, and mitochondria immediately isolated from the freshly brain by a modification of the method described by Mattiazzi et al. (2002). Brain mitochondria were isolated in cold mitochondrial isolation buffer, containing 0.07 M sucrose, 0.22 M mannitol, 20 mM HEPES, 1 mM EGTA, and 1% bovine serum albumin, pH 7.2. Tissues were homogenized with a Dounce homogenizer and centrifuged at 1,500×g at 4° C. for 5 minutes before transferring the supernatant. The pellets were resuspended and centrifuged at 1,500×g at 4° C. for 5 minutes. The supernatants were combined and centrifuged at 13,500×g at 4° C. for 10 minutes. Mitochondrial pellets were washed twice and finally resuspended in 50-100 μL cold isolation buffer. Protein concentration of isolated mitochondria was determined by the Bradford assay (Bradford, 1976). The final protein concentration was 20-40 mg/ml.
Mitochondrial respiration was determined using Clark-type polarographic oxygen sensors (Hansatech Instruments, Kings Lynn, Norfolk, UK) to measure the rate of oxygen consumption. Freshly isolated mitochondria were suspended in respiration buffer at a concentration of 0.5 mg mitochondrial protein per mL of respiration buffer, which consists of 0.25 M sucrose, 50 mM HEPES, 1 mM EGTA, 10 mM KH2PO4, and 2 mM MgCl2, pH 7.4. Oxygen consumption was measured with either pyruvate (10 mM) plus malate (10 mM) or succinate (10 mM) as substrates for respiration from complex I or complex II in the absence of exogenous ADP (state II) and after addition of 300 mM ADP (state III respiration). Rotenone (5 μM) was added to the reaction to inhibit respiration from complex I when succinate was used as the substrate. […] FCCP (1 μM), an uncoupling agent, was added as a control of respiration. Respiration control ratios (RCR) were calculated as the ratios of state III and state II respiration as described previously by Estabrook (1967). The unit for state II rate and state III rate is nmole/min/mg protein.
Mice were perfused via cardiac puncture with cold mitochondrial isolation buffer, the brain promptly removed, the cerebellum dissected away, and mitochondria immediately isolated from the freshly brain by a modification of the method described by Mattiazzi et al. (2002). Brain mitochondria were isolated in cold mitochondrial isolation buffer, containing 0.07 M sucrose, 0.22 M mannitol, 20 mM HEPES, 1 mM EGTA, and 1% bovine serum albumin, pH 7.2. Tissues were homogenized with a Dounce homogenizer and centrifuged at 1,500×g at 4° C. for 3 minutes before transferring the supernatant fluid. The pellets were resuspended and centrifuged at 1,500×g at 4° C. for 3 minutes. The supernatant fluids were combined and centrifuged at 1,500×g at 4° C. for 3 minutes. These supernatant fluids were then centrifuged at 13,500×g at 4° C. for 10 minutes. Mitochondrial pellets were washed twice and finally resuspended in 50-100 μL cold isolation buffer. Protein concentration of isolated mitochondria was determined by the Bradford assay (Bradford, 1976).
Mitochondrial respiration was determined using Clark-type polarographic oxygen sensors (Hansatech Instruments, UK) to measure the rate of oxygen consumption. Freshly-isolated mitochondria were suspended in respiration buffer at a concentration of 0.5 mg mitochondrial protein/mL respiration buffer, which consisted of 0.25 M sucrose, 50 mM HEPES, 1 mM EGTA, 10 mM KH2PO4, 2 mM MgCl2 and 0.2% BSA, pH 7.4. Oxygen consumption was measured with either pyruvate (10 mM) or pyruvate plus malate (10 mM) as substrates for respiration from complex I, in the absence of exogenous ADP (state II), and after addition of 300 mM ADP (state III respiration). […] FCCP (1 μM), an uncoupling agent, was added as a control respiration. Respiration control ratios (RCR) were calculated as the ratios of state III and state II respiration.

MnSOD = conditions: wild-type mice
iNOS mRNA = iNOS mRNA expression in brain tissues (RT-PCR); type: in vivo, mouse; conditions: wild-type mice, 3 hours after treatment, vs saline controls
Protocol: At 3 hours after treatment, mice were anesthetized and perfused via cardiac puncture with 0.1 M PBS, pH 7.4. The MRNA was isolated using the Micro-FastTrack 2.0 Kit (Invitrogen, Groningen, Netherlands) according to the manufacturer's instructions. The purified MRNA (5 μg) was subjected to reverse-transcription into first strand cDNA in each 20 μL of reaction mixture using the SuperScript III First-Strand Synthesis System for RT-PCR (Invitrogen) according to the manufacturer's instruction. A 25 μL PCR reaction contained 5 μL first strand cDNA, 0.1 U Taq DNA polymerase (Invitrogen), 10 mM 10×PCR buffer, 1.5 mM MgCl2, 2.5 mM dNTP and 10 pmol of each specific primer. PCR samples were subjected to the following conditions: 35 cycles for iNOS (94° C.: 1 minute; 65° C.: 1 minute; 72° C.: 1 minute), 32 cycles for β-actin (94° C.: […]; 55° C.: 30 s; 72° C.: 10 minutes), on a thermocycle (Perkin-Elmer). The primers with the target gene sequences were synthesized by Invitrogen. The primer sequence iNOS was 5′-CTGATGGTCAAGATCCAG-A-GGTCT-3′ (forward) and 5′-[…]-CTCT-3′(reverse), and the primer for β-actin was 5′-TGTTAC-CAACTGGGACGACA-3′ (forward) and 5′-CTGGGTCATCTT-TTCACCGT-3′ (reverse). After amplification, PCR products were subjected to 1% agarose gel electrophoresis, and visualized by ethidium bromide staining. The relative density of bands was analyzed under ultraviolet light (Bio-Rad). Experiments were repeated three times for reproducibility.

With NCCCN(CCCN)/[N+]([O-])=N/O [DPTA NONOate, dipropylenetriamine NONOate] the “TNF-α level in serum (circulating TNF-α)” value (TNF α; iNOSKO mice, 3 hours after treatment) was “did not lead to changes; also recorded: had no effect” and the “Brain mitochondrial respiration complex I (RCR)” value [1] was “significantly lowered; also recorded: causes mitochondrial dysfunction”.
COC(=O)[C@@H](N)CCCNC(=N)N[N+](=O)[O-] [L-NAME, NG-nitro-L-arginine-methyl esther] was tested, and the “MnSOD activity in brain vs saline- or ADR-treated mice” value (MnSOD; L-NAME 10 mg/kg i.p.) was “led to increased MnSOD activity” and the “Effect on ADR-induced MnSOD inactivation” value (MnSOD; L-NAME with ADR) was “prevented MnSOD inactivation”.
For TNF-α, the “TNF α level in serum (circulating TNF α)” value (TNF α; wild-type mice, 3 hours after single i.p. treatment, vs saline control) was “increased” and the “iNOS mRNA levels in brain tissues” value (iNOS mRNA) was “significantly increased”.
lipopolysaccharide [LPS] was tested, and the “iNOS mRNA levels in brain tissues” value (iNOS mRNA) was “significantly increased”.
